What is called IC50 is the midpoint of a concentration-inhibition curve.

One data set deals with MDA-MB-231. The experiment in a line: Antiproliferative activity against human MDA-MB-231 cells assessed as inhibition of cell proliferation incubated for 72 hrs by SRB assay. The data set is classed as functional, cell-based. To be noted: MDA-MB-231, 72 h.
Data set [1] in a line: Cytotoxicty against HEK cells incubated for 72 hrs by SRB assay. In kind it is toxicity, cell-based. The following applies: human.
In the next data set the test system is MCF7. Kind of data set: Antiproliferative activity against human MCF7 cells assessed as inhibition of cell proliferation incubated for 72 hrs by SRB assay. To be noted: MCF7, 72 h. In kind it is functional, cell-based. In general terms: The SRB assay estimates cell density from bound dye.

For the compound `COc1ccc2c(c1OC)C(=O)O[C@@H]2[C@H]1c2c(c(NC(=O)Nc3cccc(C(C)=O)c3)c3c(c2OC)OCO3)CCN1C`, the IC50 is 33.2 µM in the data set with MDA-MB-231 and 29.5 µM in the data set with MCF7. The compound further yielded an IC50 at 72 h in data set [1] of 306 µM.
With `COc1ccc2c(c1OC)C(=O)O[C@@H]2[C@H]1c2c(cc3c(c2OC)OCO3)CCN1C` [NOSCAPINE], the concentration for half-maximal inhibition (IC50) with MDA-MB-231 worked out at 54 µM; in the data set on MCF7, 39.7 µM. The compound also registered a half-inhibitory concentration (IC50) at 72 h in data set [1] of 229 µM.
For `COc1ccc(NC(=O)Nc2c3c(c(OC)c4c2OCO4)[C@H]([C@H]2OC(=O)c4c2ccc(OC)c4OC)N(C)CC3)c(OC)c1`, in that order: 20.4 µM, 17.5 µM and 306 µM.
For `CCc1ccc(NC(=O)Nc2c3c(c(OC)c4c2OCO4)[C@H]([C@H]2OC(=O)c4c2ccc(OC)c4OC)N(C)CC3)cc1`, in that order: 45.7 µM, 38.2 µM and 290 µM.
For the compound `COc1ccc2c(c1OC)C(=O)O[C@@H]2[C@H]1c2c(c(NC(=O)Nc3ccc(F)c(Cl)c3)c3c(c2OC)OCO3)CCN1C`, the IC50 with MDA-MB-231 turned out to be 35.2 µM; in the data set on MCF7, 32.7 µM. The compound also displayed an IC50 at 72 h in data set [1] of 285 µM.
For the compound `COc1ccc2c(c1OC)C(=O)O[C@@H]2[C@H]1c2c(c(NC(=O)Nc3cccc(F)c3)c3c(c2OC)OCO3)CCN1C`, the figures for the IC50 in the data set with MDA-MB-231 and in the data set on MCF7 were 48.5 µM and 37.9 µM, respectively. Also, 292 µM corresponded to half-maximal inhibition in data set [1] (IC50 at 72 h).
As to `COc1ccc2c(c1OC)C(=O)O[C@@H]2[C@H]1c2c(c(NC(=O)Nc3c(Cl)cc(Cl)cc3Cl)c3c(c2OC)OCO3)CCN1C`, the IC50 in the data set on MDA-MB-231 is 35.7 µM; with MCF7, 27.7 µM. For the same compound, in data set [1], half-maximal inhibition (IC50 at 72 h) was put at 293 µM.
In the same order, the values of `COc1cc(NC(=O)Nc2c3c(c(OC)c4c2OCO4)[C@H]([C@H]2OC(=O)c4c2ccc(OC)c4OC)N(C)CC3)cc(OC)c1OC` are 48.1 µM, 36.1 µM and 294 µM.

Source of the values: ChEMBL document CHEMBL6120986, “In silico inspired design of urea noscapine congeners as anticancer agents: Chemical synthesis and experimental evaluation using breast cancer cells and a xenograft mouse model” (Eur J Med Chem, 2025).
